The series is described as follows: Storage stability of crystalline rapamycin followed by DSC. In kind it is physicochemical. The method, then:
In one example, the crystallinity is maintained over a period of about 2 months. In another example, the crystallinity is maintained over a period of about 4 months. In a further example, the crystallinity is maintained up to about 60% relative humidity.
In this example, samples containing rapamycin (Table 3) were analyzed by DSC and optical microscopy. The morphology and approximate particle size were determined using optical microscopy. A standard DSC sample ramp rate of 10° C./min and a hermetically sealed aluminum pan were utilized.
Sample 2 contained crystalline rapamycin and about 2 to about 3% of oxidative/hydrolysis degradation impurities and was prepared using the process of Example 3. A portion of the batch was maintained at 25° C. and 60% relative humidity for 2 months.
Sample 3 contains crystalline rapamycin and about 2 to about 3% of oxidative/hydrolysis degradation impurities and was prepared using the process of example 3. A portion of the batch was subjected to 25° C. and 60% relative humidity for 4 months.
On the technique in general: Differential scanning calorimetry records heat flow against a reference as temperature is scanned.

For the compound `CO[C@H]1C[C@@H]2CC[C@@H](C)[C@@](O)(O2)C(=O)C(=O)N2CCCC[C@H]2C(=O)O[C@H]([C@H](C)C[C@@H]2CC[C@@H](O)[C@H](OC)C2)CC(=O)[C@H](C)/C=C(\C)[C@@H](O)[C@@H](OC)C(=O)[C@H](C)C[C@H](C)/C=C/C=C/C=C/1C` [rapamycin], the “effect of low levels of impurities on DSC melting temperature over time” value (about 2 to about 3% oxidative/hydrolysis degradation impurities, 25° C. and 60% relative humidity, 2 and 4 months) is recorded as “do not affect”. The crystallinity on storage result (period up to 4 months at up to about 60% relative humidity) was “substantially maintained”. Where the note is “stored for up to 4 months at up to about 60% relative humidity”, the “change in the DSC melting endotherm on storage” value is “minimal change”.

The values above are taken from US20070128731A1, “Methods for preparing crystalline rapamycin and for measuring crystallinity of rapamycin compounds using differential scanning calorimetry” (Wyeth, priority 2005, published 2007).
